Columns and labels:
[1] = molecular target: PRMT5-MEP50 enzyme complex (Homo sapiens (Human), UniProt O14744); test: PRMT5 enzyme activity in vitro assay (methylation of histone H4R3, ELISA absorbance at 450 nm); format: biochemical; details: SAM, histone H4 peptide, room temperature 2 hours, 8 points from 10 μM to 0.128 nM
How it was run: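 Human PRMT5-MEP50 was prepared at 5 μg/mL with SAM at 2 μM and reacted 2 h at room temperature on plate-coated histone H4 (1-20) peptide. An 8-point 1:5 compound series ran from 10 μM to 0.128 nM. H4R3 methylation was detected by antibody/HRP ELISA at 450 nm to give IC50.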

[2] = system: SDMA levels in the tumor (U87MG tumor cells implanted subcutaneously); test: Test for in vivo target inhibitory activity (SDMA levels in U87MG tumor); details: U87MG tumor in nude mice, oral 25 or 50 mg/kg 1-2 times daily for one week
Procedure: Test for in vivo target inhibitory activity
After U87MG tumor cells were implanted subcutaneously in nude mice, a PRMT5 inhibitor was administered orally (25 or 50 mg/kg) 1-2 times daily for one week, and then the degree to which SDMA levels in the tumor decreased was measured.
Reagents: Bradford's solution (Catalog No. 500-0006) was purchased from Bio-rad (USA). SDMA antibody (Catalog No. 13222s) was purchased from Cell Signaling Technology (USA). SmD3 antibody (Catalog No. ap12451a) was purchased from Abgent (USA), and secondary antibody (Catalog No. ab6721) and TMB substrate (Catalog No. ab210902) were purchased from Abcam (UK).
Experimental procedure: The tumor tissues transplanted into the mice were excised, the cells were lysed, and then quantified with Bradford's solution. 5-10 μg of protein per sample was diluted with carbonate-bicarbonate buffer and dispensed into a 96-well plate and reacted at room temperature for 2 hours. After washing with phosphate buffered saline (PBST) containing 0.05% Tween-20 3 times, 200 μL of PBST containing 5% bovine serum albumin (BSA-PBST) was added and reacted at room temperature for 2 hours. After washing with PBST 3 times, the SDMA antibody and the SmD3 antibody were diluted in BSA-PBST, and 100 μL of each was dispensed onto the plate and reacted at 4° C. overnight. After washing with PBST 3 times the next day, 100 μL of the secondary antibody diluted in BSA-PBST was added and reacted at room temperature for 1 hour. After washing with PBST 3 times, 100 μL of TMB substrate was added and reacted at room temperature for 10-20 minutes, and 100 μL of 1N sulfuric acid solution was added to terminate the reaction. Then, the absorbance at 450 nm was measured to calculate the degree of SDMA inhibition by the compound. (+++: more than 70%, ++: more than 30% and 70% or less, +: 30% or less)

Chain of PRMT5-MEP50 enzyme complex (O14744 2-637): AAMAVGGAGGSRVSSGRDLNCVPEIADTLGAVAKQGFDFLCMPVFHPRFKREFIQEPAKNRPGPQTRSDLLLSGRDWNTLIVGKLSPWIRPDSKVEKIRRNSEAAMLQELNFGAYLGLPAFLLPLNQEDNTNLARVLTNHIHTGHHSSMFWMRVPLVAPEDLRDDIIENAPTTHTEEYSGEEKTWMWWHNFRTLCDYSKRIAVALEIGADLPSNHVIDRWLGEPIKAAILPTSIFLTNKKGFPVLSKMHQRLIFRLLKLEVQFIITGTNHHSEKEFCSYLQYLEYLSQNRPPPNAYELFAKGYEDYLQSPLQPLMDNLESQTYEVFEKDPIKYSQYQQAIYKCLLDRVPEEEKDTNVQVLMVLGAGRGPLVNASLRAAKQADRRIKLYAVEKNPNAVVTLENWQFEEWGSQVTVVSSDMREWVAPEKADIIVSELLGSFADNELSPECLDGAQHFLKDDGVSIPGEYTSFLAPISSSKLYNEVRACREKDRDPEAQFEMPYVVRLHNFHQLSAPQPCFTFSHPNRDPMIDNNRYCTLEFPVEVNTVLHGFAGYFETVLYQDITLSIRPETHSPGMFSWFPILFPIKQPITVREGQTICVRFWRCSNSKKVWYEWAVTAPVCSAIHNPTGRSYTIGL
Chain of PRMT5-MEP50 enzyme complex (Q9BQA1 2-342 partner): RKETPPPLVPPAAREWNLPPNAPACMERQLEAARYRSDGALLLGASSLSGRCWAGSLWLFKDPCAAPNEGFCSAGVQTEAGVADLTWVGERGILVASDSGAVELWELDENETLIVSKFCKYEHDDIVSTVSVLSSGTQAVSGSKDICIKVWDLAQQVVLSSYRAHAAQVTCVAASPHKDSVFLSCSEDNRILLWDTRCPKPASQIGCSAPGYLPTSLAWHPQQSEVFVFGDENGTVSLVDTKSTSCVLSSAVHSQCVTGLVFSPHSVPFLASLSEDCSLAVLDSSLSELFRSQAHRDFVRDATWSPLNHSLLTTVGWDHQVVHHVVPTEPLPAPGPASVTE

SMILES	IC50 [1]	SDMA inhibition (%) [2]
O=C1c2ccc(OC3CCN(C4COC4)CC3)cc2OCCN1C[C@H](O)CN1CCc2ccccc2C1 [Example 92, 4-[(2R)-3-(3,4-dihydro-1H-isoquinolin-2-yl)-2-hydroxy-propyl]-8-[[1-(oxetan-3-yl)-4-piperidyl]oxy]-2,3-dihydro-1,4-benzoxazepin-5-one]	100 to 1000 nM	+++ (+++: more than 70%)
CCCc1ccc2c(c1)OCCN(C[C@H](O)CN1CCc3ccccc3C1)C2=O [Example 11, 4-[(2R)-3-(3,4-dihydro-1H-isoquinolin-2-yl)-2-hydroxy-propyl]-8-propyl-2,3-dihydro-1,4-benzoxazepin-5-one]	100 to 1000 nM	++ (++: more than 30% and 70% or less)
CN1CCC(Oc2ccc3c(c2)OC(C)(C)CN(C[C@H](O)CN2CCc4ccccc4C2)C3=O)CC1 [Example 112, 4-[(2R)-3-(3,4-dihydro-1H-isoquinolin-2-yl)-2-hydroxy-propyl]-2,2-dimethyl-8-[(1-methyl-4-piperidyl)oxy]-3H-1,4-benzoxazepin-5-one]	100 to 1000 nM	+++ (+++: more than 70%)

Continued, in another order:

IC50 [1]	SMILES	SDMA inhibition (%) [2]
1 to 100 nM	CN1CCC(Oc2ccc3c(c2)OCCN(C[C@H](O)CN2CCc4ccccc4C2)C3=O)CC1 [Example 87, 4-[(2R)-3-(3,4-dihydro-1H-isoquinolin-2-yl)-2-hydroxy-propyl]-8-[(1-methyl-4-piperidyl)oxy]-2,3-dihydro-1,4-benzoxazepin-5-one]	+++ (+++: more than 70%)
1 to 100 nM	CN1CCN(C[C@H](O)CN2CCc3ccccc3C2)C(=O)c2ccc(Br)cc21 [Example 156, 8-bromo-4-[(2R)-3-(3,4-dihydro-1H-isoquinolin-2-yl)-2-hydroxy-propyl]-1-methyl-2,3-dihydro-1,4-benzodiazepin-5-one]	++ (++: more than 30% and 70% or less)
1 to 100 nM	O=C1c2ccc(CN3CCOCC3)cc2OCCN1C[C@H](O)CN1CCc2ccccc2C1 [Example 22, 4-[(2R)-3-(3,4-dihydro-1H-isoquinolin-2-yl)-2-hydroxy-propyl]-8-(morpholinomethyl)-2,3-dihydro-1,4-benzoxazepin-5-one]	+++ (+++: more than 70%)
1 to 100 nM	CCN1CCC(Oc2ccc3c(c2)OCCN(C[C@H](O)CN2CCc4ccccc4C2)C3=O)CC1 [Example 88, 4-[(2R)-3-(3,4-dihydro-1H-isoquinolin-2-yl)-2-hydroxy-propyl]-8-[(1-ethyl-4-piperidyl)oxy]-2,3-dihydro-1,4-benzoxazepin-5-one]	+++ (+++: more than 70%)

From US11111237B2, “Bicyclic compound and use thereof” (SK BIOPHARMACEUTICALS CO., LTD., priority 2019, dated 2021)
